Measured values taken from PMC11842024, “Reversible male contraception by targeted inhibition of serine/threonine kinase 33” (Science (New York, N.Y.), 2024).

Tested on: not listed separately
Assay: Metabolic stability assay in liver microsomes (MLM)
Type: in vitro ADME, mouse
Conditions: 2.0 µM, 0.5 mg protein/mL, NADPH; data >60 min is an extrapolated estimate
Method: (§1) Metabolic stability assay in liver microsomes. The stabilities of CDD-2110, CDD-2211, CDD-2212, CDD-2807, and CDD-3348 in liver microsomes with/without Uridine Diphosphate Glucuronic Acid (UDP-GA, a cofactor of UDP-glucuronosyltransferases) were performed and half-life was calculated as previously reported (36). Briefly, each CDD compound (2.0 μM) was incubated in the mouse or human liver microsomes (0.5 mg protein/mL) at 37°C in 1× PBS fortified with NADPH (1.0 mM) and with/without UDP-GA (2.5 mM). Alamethicin (25 µg/mL) as a pore forming agent was used for the glucuronidation (Table S2A). The samples were collected at specific time-points 0, 30, and 60 min in duplicate. The reactions were terminated by adding equivalent volume of ice-cold methanol (CH3OH) and vortexed. After centrifugation at 15000 g for 10 min, 3.0 μL of the supernatant was analyzed by Thermo TSQ Quantis MS coupled with a Thermo Vanquish UHPLC (San Jose, CA) equipped with a Luna C18 column (1 mm × 50 mm, 1.6 µm, Phenomenex, Torrance, CA). The column temperature was maintained at 40°C. CDD-2807 was monitored under the selected reaction monitoring (SRM) mode coupled with a positive electrospray ionization (ESI) source. The SRM ion pairs were 447→321 for CDD-2807.

Metabolic stability MLM, t1/2	Compound
46 min	O=C(c1ccc2[nH]nc(C#Cc3ccccc3-c3ccccc3)c2c1)N1CC2(CCNCC2)C1 [Compound S7]
42 min	NC1CCN(C(=O)c2ccc3[nH]nc(C#Cc4ccccc4-c4ccccc4)c3c2)C1 (centres unmarked) [Compound S1]

Same assay, conditions: mouse, liver microsomes, 2.0 µM, 0.5 mg protein/mL, NADPH; data >60 min is an extrapolated estimate; read-out: Metabolic stability MLM, t1/2

half-life at 2 µM	Compound
25 min	CNC(=O)C1CCN(C2CCN(C(=O)c3ccc4[nH]nc(C#Cc5ccccc5-c5ccccc5)c4c3)C2)CC1 (centres unmarked) [CDD-2110]
9 min	CN(C)[C@H]1CCN(C(=O)c2ccc3[nH]nc(C#Cc4ccccc4-c4ccccc4)c3c2)C1 [CDD-2212]

Tested on: not listed separately
Assay: Metabolic stability assay in liver microsomes (HLM)
Type: in vitro ADME, human
Conditions: 2.0 µM, 0.5 mg protein/mL, NADPH; data >60 min is an extrapolated estimate
Method: as §1

Metabolic stability HLM, t1/2	Compound
235 min	O=C(c1ccc2[nH]nc(C#Cc3ccccc3-c3ccccc3)c2c1)N1CC2(CCNCC2)C1 [Compound S7]
277 min	NC1CCN(C(=O)c2ccc3[nH]nc(C#Cc4ccccc4-c4ccccc4)c3c2)C1 (centres unmarked) [Compound S1]

Same assay, conditions: human, liver microsomes, 2.0 µM, 0.5 mg protein/mL, NADPH; data >60 min is an extrapolated estimate; read-out: Metabolic stability HLM, t1/2

half-life at 2 µM	Compound
10 min	CNC(=O)C1CCN(C2CCN(C(=O)c3ccc4[nH]nc(C#Cc5ccccc5-c5ccccc5)c4c3)C2)CC1 (centres unmarked) [CDD-2110]
8 min	CN(C)[C@H]1CCN(C(=O)c2ccc3[nH]nc(C#Cc4ccccc4-c4ccccc4)c3c2)C1 [CDD-2212]

Target: T1, CLK1 (Homo sapiens, UniProt P49759)
T1 sequence (P49759 whole entry): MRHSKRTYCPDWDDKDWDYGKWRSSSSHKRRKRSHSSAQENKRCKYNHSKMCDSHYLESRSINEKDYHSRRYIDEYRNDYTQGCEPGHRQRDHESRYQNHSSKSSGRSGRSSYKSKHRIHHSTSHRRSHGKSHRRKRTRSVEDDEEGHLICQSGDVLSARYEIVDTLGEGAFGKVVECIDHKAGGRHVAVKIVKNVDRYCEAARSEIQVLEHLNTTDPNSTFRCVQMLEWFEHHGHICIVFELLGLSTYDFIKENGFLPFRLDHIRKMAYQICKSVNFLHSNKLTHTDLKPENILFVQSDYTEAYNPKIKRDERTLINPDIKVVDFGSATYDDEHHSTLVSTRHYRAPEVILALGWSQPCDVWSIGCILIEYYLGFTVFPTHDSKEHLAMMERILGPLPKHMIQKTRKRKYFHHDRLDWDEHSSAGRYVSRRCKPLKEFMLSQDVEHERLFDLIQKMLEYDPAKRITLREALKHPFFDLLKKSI
Assay: NanoBRET target engagement intracellular kinase assay
Type: cell-based
Design: host or cells: HEK293 (HEK293T cultured)
Conditions: HEK293 cells, 2 hours incubation
Method: (§2) NanoBRET Target Engagement intracellular kinase assay. HEK293T cells were cultured in […]
(§3) The cell line underwent authentication by short tandem repeat (STR) profiling at Cytogenetics and Cell Authentication Core (CCAC) at MD Anderson Cancer Center. NanoBRET Target Engagement intracellular kinase assay, K-10 assay (Cat. # N2641), K-9 assay (Cat. # N2631), transfection reagent FuGENE HD (Cat. # E2311), transfection carrier DNA (Cat. # E4881), NanoLuc-STK33 fusion vector (Cat. # NV2111), NanoLuc-RET fusion vector (Cat. # NV1951), NanoLuc-CLK1 fusion vector (Cat. # NV1131), NanoLuc-CLK2 fusion vector (Cat. # NV1141), and NanoLuc-CLK4 fusion vector (Cat. # NV1151) were purchased from Promega. The measurement of test compound engagement with cellular target protein was performed in a 384-well format according to manufacturer’s instructions. HEK293 cells were transiently transfected with NanoLuc (STK33, RET, CLK1, CLK2, and CLK4) fusion vectors. After 36 hours of transfection, cells were treated with a fixed concentration of tracer (recommended by Promega) followed by compounds (inhibitors) for 2 hours of incubation. To determine the test compound […]
(§4) 0.4 nM at a fixed tracer concentration. Staurosporine was measured in parallel as a positive control.
(§5) Freshly prepared NanoBRET Nano-Glo substrate plus extracellular NanoLuc inhibitor was then added to initiate the subsequent bioluminescence resonance energy transfer (BRET) measurements using a CLARIOstar Plus BMG LABTECH plate reader. Data analysis was done by measuring the ratio of acceptor emission to donor emission (BRET ratio) and normalized by subtracting no-tracer-control-background. IC50 values were obtained by nonlinear regression using a four-parameter equation in GraphPad Prism 7 (San Diego, CA).

IC50	Compound
1.21 µM	CNC(=O)C1CCN(C2CCN(C(=O)c3ccc4[nH]nc(C#Cc5ccccc5-c5ccccc5)c4c3)C2)CC1 (centres unmarked) [CDD-2110]
3.23 µM	CN(C)[C@H]1CCN(C(=O)c2ccc3[nH]nc(C#Cc4ccccc4-c4ccccc4)c3c2)C1 [CDD-2212]

Same assay, conditions: selectivity vs STK33

Fold NanoBRET IC50 CLK1 over STK33 (in parentheses)	Compound
32 X	CNC(=O)C1CCN(C2CCN(C(=O)c3ccc4[nH]nc(C#Cc5ccccc5-c5ccccc5)c4c3)C2)CC1 (centres unmarked) [CDD-2110]
3 X	CN(C)[C@H]1CCN(C(=O)c2ccc3[nH]nc(C#Cc4ccccc4-c4ccccc4)c3c2)C1 [CDD-2212]

Target: T2, CLK2 (Homo sapiens, UniProt P49760)
T2 sequence (P49760 whole entry): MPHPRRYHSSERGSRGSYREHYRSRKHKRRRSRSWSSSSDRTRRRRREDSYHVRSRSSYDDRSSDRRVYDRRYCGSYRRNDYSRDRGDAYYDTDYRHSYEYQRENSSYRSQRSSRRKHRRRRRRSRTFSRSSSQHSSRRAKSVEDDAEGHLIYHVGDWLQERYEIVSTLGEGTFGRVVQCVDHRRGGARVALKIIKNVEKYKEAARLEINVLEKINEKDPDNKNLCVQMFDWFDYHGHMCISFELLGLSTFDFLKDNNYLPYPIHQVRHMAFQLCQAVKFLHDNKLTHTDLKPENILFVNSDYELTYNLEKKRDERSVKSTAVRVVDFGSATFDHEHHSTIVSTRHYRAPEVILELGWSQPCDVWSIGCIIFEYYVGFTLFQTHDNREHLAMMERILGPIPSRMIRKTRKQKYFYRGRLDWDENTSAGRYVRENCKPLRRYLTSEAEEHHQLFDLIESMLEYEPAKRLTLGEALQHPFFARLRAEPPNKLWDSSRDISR
Assay: as above
Type: cell-based
Design: host or cells: HEK293 (HEK293T cultured)
Conditions: HEK293 cells, 2 hours incubation
Method: as §2, §3, §4, §5

IC50	Compound
0.917 µM	CNC(=O)C1CCN(C2CCN(C(=O)c3ccc4[nH]nc(C#Cc5ccccc5-c5ccccc5)c4c3)C2)CC1 (centres unmarked) [CDD-2110]
1.55 µM	CN(C)[C@H]1CCN(C(=O)c2ccc3[nH]nc(C#Cc4ccccc4-c4ccccc4)c3c2)C1 [CDD-2212]

Same assay, conditions: selectivity vs STK33

Fold NanoBRET IC50 CLK2 over STK33 (in parentheses)	Compound
24 X	CNC(=O)C1CCN(C2CCN(C(=O)c3ccc4[nH]nc(C#Cc5ccccc5-c5ccccc5)c4c3)C2)CC1 (centres unmarked) [CDD-2110]
1.5 X	CN(C)[C@H]1CCN(C(=O)c2ccc3[nH]nc(C#Cc4ccccc4-c4ccccc4)c3c2)C1 [CDD-2212]

Target: T3, CLK4 (Homo sapiens, UniProt Q9HAZ1)
T3 sequence (Q9HAZ1 whole entry): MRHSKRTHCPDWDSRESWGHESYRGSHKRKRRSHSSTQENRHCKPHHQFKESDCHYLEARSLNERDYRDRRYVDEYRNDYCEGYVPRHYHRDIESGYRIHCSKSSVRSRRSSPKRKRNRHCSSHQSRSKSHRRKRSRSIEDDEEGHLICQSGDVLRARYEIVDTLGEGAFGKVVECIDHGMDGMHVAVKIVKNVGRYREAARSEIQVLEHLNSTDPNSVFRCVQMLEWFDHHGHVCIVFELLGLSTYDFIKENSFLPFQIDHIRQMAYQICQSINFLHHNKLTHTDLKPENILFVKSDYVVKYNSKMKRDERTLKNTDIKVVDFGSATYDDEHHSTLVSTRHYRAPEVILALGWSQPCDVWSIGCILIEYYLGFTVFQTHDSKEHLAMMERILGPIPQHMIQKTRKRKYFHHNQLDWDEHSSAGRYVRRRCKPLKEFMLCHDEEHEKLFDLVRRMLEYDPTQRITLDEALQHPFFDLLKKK
Assay: as above
Type: cell-based
Design: host or cells: HEK293 (HEK293T cultured)
Conditions: HEK293 cells, 2 hours incubation
Method: as §2, §3, §4, §5

IC50	Compound
0.544 µM	CNC(=O)C1CCN(C2CCN(C(=O)c3ccc4[nH]nc(C#Cc5ccccc5-c5ccccc5)c4c3)C2)CC1 (centres unmarked) [CDD-2110]
5.88 µM	CN(C)[C@H]1CCN(C(=O)c2ccc3[nH]nc(C#Cc4ccccc4-c4ccccc4)c3c2)C1 [CDD-2212]

Same assay, conditions: selectivity vs STK33

Fold NanoBRET IC50 CLK4 over STK33 (in parentheses)	Compound
14 X	CNC(=O)C1CCN(C2CCN(C(=O)c3ccc4[nH]nc(C#Cc5ccccc5-c5ccccc5)c4c3)C2)CC1 (centres unmarked) [CDD-2110]
6 X	CN(C)[C@H]1CCN(C(=O)c2ccc3[nH]nc(C#Cc4ccccc4-c4ccccc4)c3c2)C1 [CDD-2212]

Target: T4, RET (Homo sapiens, UniProt P07949)
T4 sequence (P07949 29-1114): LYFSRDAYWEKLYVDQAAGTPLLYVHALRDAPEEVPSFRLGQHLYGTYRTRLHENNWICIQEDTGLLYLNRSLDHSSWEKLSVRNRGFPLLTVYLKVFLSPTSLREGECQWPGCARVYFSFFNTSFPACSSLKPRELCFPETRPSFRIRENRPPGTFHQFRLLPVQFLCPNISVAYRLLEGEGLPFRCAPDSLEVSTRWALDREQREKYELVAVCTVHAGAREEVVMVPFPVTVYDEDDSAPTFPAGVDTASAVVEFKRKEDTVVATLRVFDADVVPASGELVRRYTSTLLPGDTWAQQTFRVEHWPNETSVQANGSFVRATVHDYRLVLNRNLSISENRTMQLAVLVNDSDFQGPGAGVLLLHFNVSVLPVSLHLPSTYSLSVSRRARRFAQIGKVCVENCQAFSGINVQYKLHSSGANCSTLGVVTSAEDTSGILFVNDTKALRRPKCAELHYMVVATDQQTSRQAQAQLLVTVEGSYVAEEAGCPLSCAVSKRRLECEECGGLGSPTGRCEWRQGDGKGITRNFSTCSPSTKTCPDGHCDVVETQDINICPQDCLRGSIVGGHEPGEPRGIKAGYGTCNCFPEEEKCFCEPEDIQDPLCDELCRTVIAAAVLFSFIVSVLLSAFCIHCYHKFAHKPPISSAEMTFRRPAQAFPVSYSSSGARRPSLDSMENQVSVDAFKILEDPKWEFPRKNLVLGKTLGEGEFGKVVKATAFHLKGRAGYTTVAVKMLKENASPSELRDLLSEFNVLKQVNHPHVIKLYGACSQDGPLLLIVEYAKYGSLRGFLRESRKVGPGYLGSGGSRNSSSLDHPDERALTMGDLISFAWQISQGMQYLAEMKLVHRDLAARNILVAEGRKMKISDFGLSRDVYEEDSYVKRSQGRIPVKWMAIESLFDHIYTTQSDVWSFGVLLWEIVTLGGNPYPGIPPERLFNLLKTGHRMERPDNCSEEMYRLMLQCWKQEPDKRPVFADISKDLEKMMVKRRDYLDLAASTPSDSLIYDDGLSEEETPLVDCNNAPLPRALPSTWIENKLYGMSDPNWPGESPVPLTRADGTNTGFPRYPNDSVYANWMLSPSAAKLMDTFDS
Assay: as above
Type: cell-based
Design: host or cells: HEK293 (HEK293T cultured)
Conditions: HEK293 cells, 2 hours incubation
Method: as §2, §3, §4, §5

IC50	Compound
0.746 µM	CNC(=O)C1CCN(C2CCN(C(=O)c3ccc4[nH]nc(C#Cc5ccccc5-c5ccccc5)c4c3)C2)CC1 (centres unmarked) [CDD-2110]
1.09 µM	CN(C)[C@H]1CCN(C(=O)c2ccc3[nH]nc(C#Cc4ccccc4-c4ccccc4)c3c2)C1 [CDD-2212]

Same assay, conditions: selectivity vs STK33

Fold NanoBRET IC50 RET over STK33 (in parentheses)	Compound
20 X	CNC(=O)C1CCN(C2CCN(C(=O)c3ccc4[nH]nc(C#Cc5ccccc5-c5ccccc5)c4c3)C2)CC1 (centres unmarked) [CDD-2110]
1.1 X	CN(C)[C@H]1CCN(C(=O)c2ccc3[nH]nc(C#Cc4ccccc4-c4ccccc4)c3c2)C1 [CDD-2212]

Target: T5, STK33 (Homo sapiens, UniProt Q9BYT3)
T5 sequence (Q9BYT3 whole entry): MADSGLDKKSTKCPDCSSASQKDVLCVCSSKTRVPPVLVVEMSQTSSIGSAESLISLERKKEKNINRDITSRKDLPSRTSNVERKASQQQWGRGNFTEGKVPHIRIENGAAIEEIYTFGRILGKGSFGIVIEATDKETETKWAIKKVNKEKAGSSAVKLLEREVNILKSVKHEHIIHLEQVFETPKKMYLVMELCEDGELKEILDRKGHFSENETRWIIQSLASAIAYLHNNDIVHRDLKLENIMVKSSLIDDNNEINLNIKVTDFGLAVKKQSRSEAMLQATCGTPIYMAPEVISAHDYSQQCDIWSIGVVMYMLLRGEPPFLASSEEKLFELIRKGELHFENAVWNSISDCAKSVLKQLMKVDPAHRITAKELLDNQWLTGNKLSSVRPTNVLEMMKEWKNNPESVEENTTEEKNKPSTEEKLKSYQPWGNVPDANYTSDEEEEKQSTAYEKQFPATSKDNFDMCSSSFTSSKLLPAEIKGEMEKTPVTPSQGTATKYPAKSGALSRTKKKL
Assay: as above
Type: cell-based
Design: host or cells: HEK293 (HEK293T cultured)
Conditions: not given
Method: as §2, §3, §4, §5

selectivity toward STK33 compared to CLK1, CLK2, CLK4, and RET	Compound
> 10 fold	CNC(=O)C1CCN(C2CCN(C(=O)c3ccc4[nH]nc(C#Cc5ccccc5-c5ccccc5)c4c3)C2)CC1 (centres unmarked) [CDD-2110]

Same assay, conditions: HEK293 cells, 2 hours incubation

IC50	Compound
0.038 µM	CNC(=O)C1CCN(C2CCN(C(=O)c3ccc4[nH]nc(C#Cc5ccccc5-c5ccccc5)c4c3)C2)CC1 (centres unmarked) [CDD-2110]
0.168 µM	O=C(c1ccc2[nH]nc(C#Cc3ccccc3-c3ccccc3)c2c1)N1CC2(CCNCC2)C1 [Compound S7]
0.046 µM	NC1CCN(C(=O)c2ccc3[nH]nc(C#Cc4ccccc4-c4ccccc4)c3c2)C1 (centres unmarked) [Compound S1]
0.999 µM	CN(C)[C@H]1CCN(C(=O)c2ccc3[nH]nc(C#Cc4ccccc4-c4ccccc4)c3c2)C1 [CDD-2212]

Same assay, conditions: vs compound 1, ML281, BRD8899

fold more potent than published STK33 inhibitors in cellular assays	Compound
20- to 310 fold	CNC(=O)C1CCN(C2CCN(C(=O)c3ccc4[nH]nc(C#Cc5ccccc5-c5ccccc5)c4c3)C2)CC1 (centres unmarked) [CDD-2110]

Target: T5, STK33
Assay: LanthaScreen binding assay (ThermoFisher SelectScreen)
Design: purchased SelectScreen Services (ThermoFisher)
Conditions: not given
Description: (§6) In vitro biochemical assays. Several small molecule assays were outsourced to SelectScreen Services (ThermoFisher) for STK33 and for off-target kinases (data sets are available on demand).
(§7) These assays are LanthaScreen (binding assay) and Z’-LYTE (activity assay). Dose-responses were done with at least 5 different concentrations in duplicates, and parameters were optimized by calculations described below and provided with standard errors.
(§8) Calculation of Kd values for kinase inhibitors that bind to the ATP pocket of a kinase from LanthaScreen binding data. DynaFit (71) was used to fit complex equilibria where a tracer is displaced by a dilution series of a kinase inhibitor. This method relies on the concentration of inhibitor, as well as the concentration of kinase and tracer, and Kd of the tracer. The latter three parameters are tabulated by ThermoFisher for each kinase in the LanthaScreen assay panel. […]
Since Kd and Ki values are defined the same way, in other words, Kd = [E] [I] / [EI] = Ki, Kd and Ki values can be compared. […]

Kd	Compound
0.0001 µM	CNC(=O)C1CCN(C2CCN(C(=O)c3ccc4[nH]nc(C#Cc5ccccc5-c5ccccc5)c4c3)C2)CC1 (centres unmarked) [CDD-2110]
0.0019 µM	CN(C)[C@H]1CCN(C(=O)c2ccc3[nH]nc(C#Cc4ccccc4-c4ccccc4)c3c2)C1 [CDD-2212]

Same assay, conditions: vs compound 1, ML281, BRD8899

fold more potent than published STK33 inhibitors in biochemical assays	Compound
12- to 400 fold	CNC(=O)C1CCN(C2CCN(C(=O)c3ccc4[nH]nc(C#Cc5ccccc5-c5ccccc5)c4c3)C2)CC1 (centres unmarked) [CDD-2110]

Target: T3, CLK4
Assay: as above
Design: purchased SelectScreen Services (ThermoFisher)
Conditions: not given
Description: as §6, §7, §8

Kd	Compound
0.0096 ± 0.0012 µM	CNC(=O)C1CCN(C2CCN(C(=O)c3ccc4[nH]nc(C#Cc5ccccc5-c5ccccc5)c4c3)C2)CC1 (centres unmarked) [CDD-2110]
0.0215 ± 0.001 µM	CN(C)[C@H]1CCN(C(=O)c2ccc3[nH]nc(C#Cc4ccccc4-c4ccccc4)c3c2)C1 [CDD-2212]

Target: T1, CLK1
Assay: Z'-LYTE activity assay (ThermoFisher SelectScreen)
Type: biochemical
Design: purchased SelectScreen Services (ThermoFisher)
Conditions: [ATP] = Kmapp
Description: as §6
(§9) These assays are LanthaScreen (binding assay) and Z’-LYTE (activity assay). Dose-responses were done with at least 5 different concentrations in duplicates, and parameters were optimized by calculations described below and provided with standard errors. […]
(§10) Calculation of Ki values for kinase inhibitors from Z’-LYTE inhibition data. The Morrison equation with [ATP] = Kmapp for competitive inhibition (GraphPad Prism 7, San Diego, CA) was used to get Ki values. Since Kd and Ki values are defined the same way, in other words, Kd = [E] [I] / [EI] = Ki, Kd and Ki values can be compared. […]

Ki	Compound
0.234 ± 0.018 µM	CNC(=O)C1CCN(C2CCN(C(=O)c3ccc4[nH]nc(C#Cc5ccccc5-c5ccccc5)c4c3)C2)CC1 (centres unmarked) [CDD-2110]
0.507 ± 0.036 µM	CN(C)[C@H]1CCN(C(=O)c2ccc3[nH]nc(C#Cc4ccccc4-c4ccccc4)c3c2)C1 [CDD-2212]

Target: T2, CLK2
Assay: Z'-LYTE activity assay (ThermoFisher SelectScreen)
Type: biochemical
Design: purchased SelectScreen Services (ThermoFisher)
Conditions: [ATP] = Kmapp
Description: as §6, §9, §10

Ki	Compound
0.027 ± 0.0066 µM	CNC(=O)C1CCN(C2CCN(C(=O)c3ccc4[nH]nc(C#Cc5ccccc5-c5ccccc5)c4c3)C2)CC1 (centres unmarked) [CDD-2110]
0.0548 ± 0.003 µM	CN(C)[C@H]1CCN(C(=O)c2ccc3[nH]nc(C#Cc4ccccc4-c4ccccc4)c3c2)C1 [CDD-2212]

Target: T4, RET
Assay: Z'-LYTE activity assay (ThermoFisher SelectScreen)
Type: biochemical
Design: purchased SelectScreen Services (ThermoFisher)
Conditions: [ATP] = Kmapp
Description: as §6, §9, §10

Ki	Compound
0.0031 ± 0.0003 µM	CNC(=O)C1CCN(C2CCN(C(=O)c3ccc4[nH]nc(C#Cc5ccccc5-c5ccccc5)c4c3)C2)CC1 (centres unmarked) [CDD-2110]
0.002 ± 0.0014 µM	CN(C)[C@H]1CCN(C(=O)c2ccc3[nH]nc(C#Cc4ccccc4-c4ccccc4)c3c2)C1 [CDD-2212]
